The record followed here is US20250381161A1, “COMPOSITIONS AND METHODS FOR TREATING HEARING AND OCULAR DISORDERS” (Anida Pharma Inc., priority 2022, published 2025).

Structures are written as SMILES.

The data set can be described thus: Release of compound 1 in artificial tear medium from dialysis tubes into artificial tear fluid, quantified via HPLC. In kind it is physicochemical. The conditions noted are these: room temperature, 100 rpm. How it is done:
0.5 mL of unformulated compound 1 dissolved in artificial tear medium (i.e., equivalent to physiological buffer solution/PBS) was filled into dialysis tubes (Spectra/Por® Biotech CE MWCO 100-500, 10 mm), sealed and immersed into containers filled with 5 mL artificial tear fluid (ATF) serving as release medium (Table 2). The samples were incubated at room temperature and shaken at 100 rpm. After 0 hours, 0.5 hours, 1 hour, 2 hours, 4 hours and 24 hours, samples were withdrawn and the amount of released compound 1 was quantified via HPLC.

Turning to `CC/C=C\C[C@H](O)\C=C/C=C/C=C/[C@H](O)C/C=C\C/C=C\CCC(=O)[O-].[Na+]` [Compound 1, Sodium (4Z,7Z,10R,11E,13E,15Z,17S, 19Z)-10,17-dihydroxydocosa-4,7,11,13,15,19-hexaenoate], the “Release (%)” value by setting is: (time point 0.5 h) 0.8%; (time point 1 h) 2%; (time point 2 h) 7%; (time point 4 h) 17%; (time point 24 h) 59%.
